# Several values for one entry are separate records, joined by “and”; a condition that tells them apart may be missing. Equal values may be shown once. Entries after “also recorded” stand apart in the source; their conditions may differ.
# Tests used:
# MV-4-11 AML xenograft = experiment: human MV-4-11 AML xenograft model in mice; type: in vivo, mouse; details: for mRECIST: MV-4-11 xenograft, animals with response / animals in group; for RTV (D22) (Mean ± SEM) / T/C (%) (D22): female BALB/c Nude mice, s.c. MV-4-11, Compound 6 or ABT-199 50 mg/kg oral once daily 21 days, HHT 1 mg/kg i.p. once daily 14 days, day 22
# Description: Treatment was initiated on the day of grouping (Day 1). […] HHT was intraperitoneally administered once daily for consecutive 14 days. The tumor sizes (caliper) and animal body weights were measured twice a week.
# OCI-AML-3 cells [1] = experiment: Annexin V-PI apoptosis flow cytometry, OCI-AML-3; type: cell-based, human; details: 24 h, Compound 6 10 nM, HHT 30 nM, alone or combined
# Description: (§1) In the antiproliferative tests, cells were plated in 96-well plates (Corning, Cat. 3903) at 10000 cells/well/cell line. In the apoptosis assay, cells were plated in 24-well plates (Corning, Cat. 3524) at 200000 cells/well/cell line.
# [Experimental Methods]: Flow Cytometer Analysis
# Cells were harvested after 24 hours of treatment with Compound 6 alone, HHT alone, or the combination of both, and washed once with phosphate buffered saline (PBS). Cells were stained with Annexin-V and PI and analyzed using an Attune NxT flow cytometer. Apoptosis profiles were obtained by analyzing 20000 cells per experimental condition.
# Apoptosis was detected using Annexin V-PI (propidium iodide) staining kit according to the manufacturer's instructions. After treating the cells MV-4-11, OCI-AML-3 and SKM-1 with 10 nM Compound 6 alone, 10 nM or 30 nM HHT alone or the combination of both for 24 hours, the cells were harvested and washed once with PBS. Cells were bi-color stained with Annenix V-FITC and PI. After staining was complete, analysis was performed using an Attune NxT flow cytometer. Apoptosis profiles were obtained by analyzing 20000 cells per experimental condition.
# MCL-1 = experiment: Western Blot assay, MCL-1; type: cell-based, human; details: MV-4-11, OCI-AML-3 and SKM-1 cells, 4 h; 10 nM Compound 6, 10 nM or 30 nM HHT
# Description: [Experimental Methods]: Western Blot Assay
# Western Blot assay was performed after 4 hours treatment of cells in logarithmic growth phase with Compound 6, HHT, either alone or in combination.
# After 4 hours of interaction with 10 nM Compound 6 in combination with 10 nM or 30 nM HHT, cells were harvested and washed once with pre-cooled PBS. The cell pellets were lysed using RIPA lysate containing 1% PMSF and 1% protease inhibitor. The protein concentration was detected by using a BCA protein concentration detection kit. Cell lysates (20-50 μg) were separated by 4-20% SDS-PAGE. The separated proteins were transferred to PVDF membranes which were blocked using 1% BSA (bovine serum albumin) buffer at room temperature for 1 hours before incubated in a shaker at 4° C. overnight with primary antibody diluted in 1×TBST (Tris-Buffered Saline Tween-20) containing 1% BSA. The membranes were washed 3 times with 1×TBST each for 10 minutes, and then were incubated for 1 hour at room temperature using horseradish peroxidase (HRP)-tagged secondary antibodies (goat anti-rabbit-HRP (Yeasen, Cat. #33101ES60) and goat anti-mouse-HRP (Yeasen, Cat. #33201ES60), diluted according to the manufacturer's instructions). The membranes were washed 3 times with 1×TBST each for 10 minutes. HRP substrate was added onto the PVDF membrane. […]
# OCI-AML-3 AML xenograft = experiment: human OCI-AML-3 AML xenograft model in mice; type: in vivo, mouse; details: female NOD SCID mice, s.c. OCI-AML-3; Compound 6 50 mg/kg oral once daily 14 days; HHT 0.75 mg/kg i.p. once daily 7 days from D2; day 15
# Description: Treatment was initiated on the grouping day (D1). […] HHT was intraperitoneally injected once daily from D2 and continued for consecutive 7 days. The tumor sizes (caliper) and animal body weights were measured twice a week.
# SKM-1 cells = experiment: CellTiter-Glo luminometric cell viability assay (CTG), SKM-1; type: cell-based
# Description: as §1
# (§2) For combination tests, the results were further analyzed using the CalcuSyn program to calculate a Combination Index (CI) (Chou, T. C. (2010) “Drug combination studies and their synergy quantification using the Chou-Talalay method.”, Cancer Res 70(2): 440-446). […]
# (§3) The anti-proliferation effects of the test sample in three AML/MDS cell lines, namely MV-4-11 (Compound 6 sensitive cell line), OCI-AML-3 (Compound 6 non-sensitive cell line) and SKM-1 (Compound 6 non-sensitive cell line), were determined by quantifying ATP using CellTiter-Glo luminescence cell viability detection kits, according to the manufacturer's instructions.
# (§4) First, cells in the logarithmic growth phase were collected, centrifuged, and the cell suspension was counted and diluted/adjusted to the desired concentration. […] More than 3 blank control wells containing only medium (100 μL/well) without cells were set on the same plate to obtain background luminescence, and cell control wells, i.e., wells containing cells but treated with vehicle control, were set. […]
# (§5) Luminescence signals were detected using a Biotek synergy H1 microplate reader. […]
# OCI-AML-3 cells [2] = experiment: CellTiter-Glo luminometric cell viability assay (CTG), OCI-AML-3; type: cell-based, human
# Description: as §1, §2, §3, §4, §5
# MV-4-11 cells = experiment: CellTiter-Glo luminometric cell viability assay (CTG), MV-4-11; type: cell-based, human
# Description: as §1, §2, §3, §4, §5
SMILES,mRECIST (MV-4-11 AML xenograft),RTV (D22) (Mean ± SEM) (MV-4-11 AML xenograft),T/C (%) (D22) (MV-4-11 AML xenograft),apoptosis (Annexin V+ cells) (OCI-AML-3 cells [1]) [%],expression level of anti-apoptosis protein MCL-1 (MCL-1),RTV(D15) (Mean ± SEM) (OCI-AML-3 AML xenograft),T/C (%) (D15) (OCI-AML-3 AML xenograft),sensitivity of the cell line to Compound 6 (SKM-1 cells),sensitivity of the cell line to Compound 6 (OCI-AML-3 cells [2]),sensitivity of the cell line to Compound 6 (MV-4-11 cells)
CC1(C)CCC(CN2CCN(c3ccc(C(=O)NS(=O)(=O)c4ccc(NCC5CCOCC5)c([N+](=O)[O-])c4)c(Oc4cnc5[nH]ccc5c4)c3)CC2)=C(c2ccc(Cl)cc2)C1 [ABT-199],no CR or PR and 6/6 PD,11.77 ± 1.94,88.27,,,,,,,
"COC(=O)C[C@](O)(CCCC(C)(C)O)C(=O)O[C@@H]1C(OC)=C[C@]23CCCN2CCc2cc4c(cc2[C@H]13)OCO4 [HHT, homoharringtonine]","3/5 SD and 3/5 SD, 2/5 PD",4.32 ± 1.42,32.43,25.0,reduce the expression level,13.89 ± 0.82,66.77,,,
"O=C(NS(=O)(=O)c1ccc(NC[C@H]2COCCO2)c([N+](=O)[O-])c1)c1ccc(N2CCN(CC3=C(c4ccc(Cl)cc4)CC4(CCC4)CC3)CC2)cc1Oc1cnc2[nH]ccc2c1 [Compound 6, (S)-N-((4-(((1,4-dioxan-2-yl)methyl)amino)-3-nitrophenyl)sulfonyl)-2-((1H-pyrrolo[2,3-b]pyridin-5-yl)oxy)-4-(4-((6-(4-chlorophenyl)spiro[3.5]non-6-en-7-yl)methyl)piperazin-1-yl)benzamide]",no CR or PR and 6/6 PD,8.36 ± 0.76,62.76,12.1,,12.77 ± 1.51,61.36,non-sensitive,non-sensitive,sensitive; also recorded: moderate sensitivity

# — US12370197B2, “Combination product of a Bcl-2/Bcl-xL inhibitor and a chemotherapeutic agent and use thereof in the prevention and/or treatment of diseases” (ASCENTAGE PHARMA (SUZHOU) CO., LTD., priority 2019, dated 2025)
